PubChem BioAssay (NCI)
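Where inhibition never reached the appropriate level, the endpoint shown equals the highest concentration tested. Otherwise, values were interpolated linearly from a five-concentration, 48-hour dose response in 96-well plates. The concentration for 50% growth inhibition is given as GI50. TGI marks complete inhibition of growth.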

Assays:
Experiment in all cases: inhibition of tumour cell growth, NCI panel, 48 h
HCT-15 colon = test system: HCT-15 colon
HS 578T breast = test system: HS 578T breast
KM12 colon = test system: KM12 colon
OVCAR-5 ovarian = test system: OVCAR-5 ovarian
SF-539 CNS = test system: SF-539 CNS
SK-MEL-2 melanoma = test system: SK-MEL-2 melanoma
TK-10 renal = test system: TK-10 renal
UACC-257 melanoma = test system: UACC-257 melanoma

Row | SMILES | TGI (HCT-15 colon) [µM] | TGI (HS 578T breast) [µM] | TGI (KM12 colon) [µM] | TGI (OVCAR-5 ovarian) [µM] | GI50 (SF-539 CNS) [µM] | TGI (SF-539 CNS) [µM] | TGI (SK-MEL-2 melanoma) [µM] | GI50 (TK-10 renal) [µM] | TGI (TK-10 renal) [µM] | TGI (UACC-257 melanoma) [µM] | GI50 (HCT-15 colon) [µM] | GI50 (KM12 colon) [µM] | GI50 (OVCAR-5 ovarian) [µM] | GI50 (SK-MEL-2 melanoma) [µM] | GI50 (UACC-257 melanoma) [µM] | GI50 (HS 578T breast) [µM]
1 | O=C1CCC(N2C(=O)c3ccccc3C2=O)C(=O)N1 (stereo not given) | > 100 | > 100 | > 100 | > 100 | > 100 | > 100 | > 100 | > 100 | > 100 | > 100 | – | – | – | – | – | –
2 | CN(C)c1nc2ccccc2c2c1c1c(n2Cc2ccccc2)-c2ccccc2C1=O | > 100 | 75.9 | > 100 | > 100 | > 100 | > 100 | > 100 | > 100 | > 100 | > 100 | > 100 | > 100 | > 100 | > 100 | > 100 | –
3 | CC1=Nc2ccccc2/C1=C\c1c(C)[nH]c2ccccc12 | 31.5 | 47.2 | 26 | 50.9 | – | 77.3 | 47.3 | – | 32.2 | 30.3 | – | – | – | – | – | –
4 | CC1=Cc2ccc(C)cc2C(=O)C1=O | 47.1 | > 65.1 | 34.5 | 37.2 | – | 14.9 | 52.9 | – | 3.68 | 15.8 | – | – | – | – | – | –
5 | C=C1C(=O)OC2CC(C)C3CC(O)OC(OCC)C3(C)CC12 (stereo not given) | 21.3 | 72.8 | 42.6 | 54.4 | – | 35.4 | 29.8 | – | 45.2 | 31.5 | – | – | – | – | – | –
6 | COc1ncnc(S(=O)(=O)c2ccc(N=C3C(=O)N(CN4CCN(c5cc6c(cc5F)c(=O)c(C(=O)O)cn6C5CC5)CC4)c4ccc(Cl)cc43)cc2)c1OC | > 50 | > 50 | > 50 | > 50 | > 50 | > 50 | > 50 | 8.78 | 36.7 | > 50 | 19.7 | 24.2 | > 50 | > 50 | 46.4 | 6.16
7 | Cc1nc(Nc2cccnc2)sc1C(=O)/C=C/c1ccc(Cl)cc1 | 4.03 | > 100 | 4.19 | 31.2 | 2.03 | 5.26 | 18.3 | 3.53 | 12.1 | > 100 | 1.59 | 1.98 | 2.87 | 3.97 | 9.22 | 4.11
8 | CCN(c1cc(-c2ccc(CN3CCOCC3)cc2)cc(C(=O)NCc2c(C)cc(C)[nH]c2=O)c1C)C1CCOCC1 | 48.4 | > 71.2 | 52 | > 82.5 | 16.3 | 33.2 | 35.8 | 25.2 | > 73.6 | 33.5 | 19.2 | 19.7 | 37.7 | 16.6 | 16.2 | 22.2
9 | CSCCCNC(=O)c1ccc2c(c1)/C(=C/c1[nH]c(C)cc1C)C(=O)N2 | > 100 | > 100 | > 100 | > 100 | 0.734 | > 100 | 4.42 | 6.44 | > 100 | > 100 | 0.44 | 0.43 | 3.85 | 0.356 | 4.67 | 0.853
10 | Cc1nc2ccc(NC(=O)CCNC(=O)CCCc3ccc(CC(C(=O)O)C(=O)O)cc3)cc2s1 | > 100 | > 100 | > 100 | > 100 | > 100 | > 100 | > 100 | > 100 | > 100 | > 100 | > 100 | > 100 | > 100 | > 100 | > 100 | > 100
11 | Cc1c2c(c(C)c3c4c(oc13)CCCC4)C=NCC2 | 34.4 | 53 | 33 | 32.1 | – | 28.9 | 31.2 | – | 25.4 | 29.5 | – | – | – | – | – | –
12 | COc1cc(C)c(C2NC(=O)c3ccccc3N2)cc1C (stereo not given) | 10 | 0.908 | > 100 | > 24.8 | – | 0.734 | 0.924 | – | > 100 | > 100 | – | – | – | – | – | –
13 | Cn1cc(C2=C(c3cn(C)c4ccc(Cl)cc34)C(=O)NC2=O)c2ccccc21 | > 25 | > 23.9 | 10.4 | > 21.9 | 1.28 | 4.74 | 6.65 | 5.55 | 23 | 16.8 | 1.35 | 2.38 | 9.3 | 1.68 | 5.09 | 2.11
14 | COc1ccc(-c2nc(-c3nc4ccc(F)cc4[nH]3)c3ccccn23)cc1 | > 100 | > 100 | > 100 | > 100 | 10.4 | 45.2 | 54.8 | 16.1 | 57.9 | 57.2 | 33.6 | 7.03 | 45.2 | 10.1 | 9.15 | 8.54
15 | O=C(NCCc1ccccn1)OCc1nc2nc(Cl)nc(N3CCOCC3)c2[nH]1 | 5.17 | 9.77 | 10.8 | 3.38 | 1.5 | 2.85 | 15.6 | 1.94 | 4 | 5.26 | 1.74 | 2.63 | 1.67 | 4.16 | 1.87 | 2.71
16 | OCc1ccc(-c2cscc2-c2ccc(CO)o2)o1 | > 100 | > 100 | > 100 | 1.97 | > 100 | > 100 | > 100 | > 100 | > 100 | 1.91 | > 80.1 | 97.4 | 0.216 | 22.5 | 0.507 | > 78.3
17 | Cc1nc2c(n1C)C(=O)c1ccccc1C2=O | > 100 | > 100 | > 100 | > 100 | 85.5 | > 100 | > 100 | > 100 | > 100 | > 100 | 53.6 | 59.7 | > 100 | > 100 | 29.4 | > 100
